Results from ChEMBL document CHEMBL5370533 (Eur J Med Chem, 2023).
Calls of active or inactive are those of the source. The calls are words filed in the database; no cut-off is given here.

Experiments:
[1] = target: CDK6/cyclin D1 (Homo sapiens) (UniProt P24385+Q00534); assay: Inhibition of CDK6/Cyclin D1 (unknown origin); type: protein-complex assay; settings: concentration not given here
[2] = target: T1, Receptor-type tyrosine-protein kinase FLT3 (Homo sapiens, UniProt P36888); assay: Inhibition of human FLT3 using EAIYAAPFAKKK and [gamma-33P]-ATP as substrate pretreated for 20 mins followed by [gamma-33P]-ATP addition and measured after 120 mins in presence of 10 uM ATP by radiometric Hot-SpotSM Kinase assay
T1 sequence (P36888 whole entry): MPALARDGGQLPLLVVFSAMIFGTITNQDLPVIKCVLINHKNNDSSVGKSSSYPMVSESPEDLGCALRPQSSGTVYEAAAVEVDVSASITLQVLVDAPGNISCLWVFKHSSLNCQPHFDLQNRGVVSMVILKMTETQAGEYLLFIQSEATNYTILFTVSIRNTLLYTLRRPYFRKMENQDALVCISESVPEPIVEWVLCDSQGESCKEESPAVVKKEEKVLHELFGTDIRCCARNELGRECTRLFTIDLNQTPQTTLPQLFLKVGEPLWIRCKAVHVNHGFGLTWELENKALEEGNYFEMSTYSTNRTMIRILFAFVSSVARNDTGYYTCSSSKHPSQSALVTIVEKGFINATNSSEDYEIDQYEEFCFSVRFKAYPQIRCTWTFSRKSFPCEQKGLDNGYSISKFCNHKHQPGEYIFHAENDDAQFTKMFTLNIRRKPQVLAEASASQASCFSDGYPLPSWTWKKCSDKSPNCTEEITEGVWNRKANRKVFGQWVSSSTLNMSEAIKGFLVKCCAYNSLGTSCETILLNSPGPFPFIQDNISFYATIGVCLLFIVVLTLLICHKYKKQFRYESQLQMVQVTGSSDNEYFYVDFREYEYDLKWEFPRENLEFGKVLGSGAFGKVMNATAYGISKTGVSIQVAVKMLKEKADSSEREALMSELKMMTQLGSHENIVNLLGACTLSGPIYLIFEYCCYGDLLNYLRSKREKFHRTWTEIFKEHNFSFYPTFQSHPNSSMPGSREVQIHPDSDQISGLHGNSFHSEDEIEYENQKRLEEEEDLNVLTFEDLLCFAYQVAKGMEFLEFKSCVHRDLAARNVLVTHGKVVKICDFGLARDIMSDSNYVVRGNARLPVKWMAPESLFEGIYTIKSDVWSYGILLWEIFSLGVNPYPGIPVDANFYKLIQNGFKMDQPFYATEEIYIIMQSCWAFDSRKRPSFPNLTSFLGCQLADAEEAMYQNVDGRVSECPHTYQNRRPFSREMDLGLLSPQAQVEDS

[3] = Cmax in rat at 10 mg/kg, po; type: ADME, organism-based; set-up: dose 10 mg/kg, route po; settings: in vivo
[4] = test system: MV4-11; assay: Antitumor activity against human MV4-11 cells xenografted in nu/nu mouse assessed as inhibition of tumor growth at 25 mg/kg, po qd for 2 weeks by vernier caliper analysis; type: functional; settings: MV4-11, 336 h
[5] = test system: HL-60; assay: Antiproliferative activity against human HL-60 cells expressing low level wild type FLT3 assessed as inhibition of cell growth; type: functional, cell-based
[6] = Tmax in Beagle dog at […], po; type: ADME, organism-based, Canis lupus familiaris; settings: in vivo, dose 1.5 mg/kg
[7] = Clearance in human liver microsomes measured per mg protein by LC-MS/MS analysis; type: ADME, Microsome; settings: read-out: CLH
[8] = target: CDK7/Cyclin H/MNAT1 (Homo sapiens) (UniProt P51946+P50613+P51948); assay: Inhibition of CDK7/Cyclin H/MAT1 (unknown origin); type: protein-complex assay; settings: concentration not given here
[9] = target: Mast/stem cell growth factor receptor Kit (Homo sapiens) (UniProt P10721); assay: Inhibition of c-Kit (unknown origin)
Sequence of Mast/stem cell growth factor receptor Kit (Homo sapiens) (P10721 whole entry): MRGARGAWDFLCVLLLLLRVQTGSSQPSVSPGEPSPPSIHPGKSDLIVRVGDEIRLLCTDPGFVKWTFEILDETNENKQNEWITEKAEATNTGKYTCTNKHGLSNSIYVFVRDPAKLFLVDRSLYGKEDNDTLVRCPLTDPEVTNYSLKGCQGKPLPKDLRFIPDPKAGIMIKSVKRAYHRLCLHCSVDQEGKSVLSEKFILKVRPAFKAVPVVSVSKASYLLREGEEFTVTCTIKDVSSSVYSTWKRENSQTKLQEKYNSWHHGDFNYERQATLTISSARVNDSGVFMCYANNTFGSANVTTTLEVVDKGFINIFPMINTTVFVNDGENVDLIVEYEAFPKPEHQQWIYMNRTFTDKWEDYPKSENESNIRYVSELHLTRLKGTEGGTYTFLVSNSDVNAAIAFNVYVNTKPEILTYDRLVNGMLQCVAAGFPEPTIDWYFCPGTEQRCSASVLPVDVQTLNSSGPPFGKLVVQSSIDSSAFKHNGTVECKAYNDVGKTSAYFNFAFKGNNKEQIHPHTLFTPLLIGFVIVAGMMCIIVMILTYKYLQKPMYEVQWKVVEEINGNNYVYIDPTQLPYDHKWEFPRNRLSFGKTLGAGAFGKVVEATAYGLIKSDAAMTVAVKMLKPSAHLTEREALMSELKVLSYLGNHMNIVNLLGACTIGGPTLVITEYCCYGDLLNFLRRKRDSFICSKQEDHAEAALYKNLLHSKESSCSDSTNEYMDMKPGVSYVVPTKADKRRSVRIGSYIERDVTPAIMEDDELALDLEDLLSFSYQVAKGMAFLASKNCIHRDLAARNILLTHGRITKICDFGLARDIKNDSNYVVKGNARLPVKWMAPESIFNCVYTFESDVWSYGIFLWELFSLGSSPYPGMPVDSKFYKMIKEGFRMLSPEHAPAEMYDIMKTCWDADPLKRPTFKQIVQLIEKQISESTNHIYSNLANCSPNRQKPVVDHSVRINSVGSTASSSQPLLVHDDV

[10] = test system: LOX IMVI; assay: Antiproliferative activity against human LOX IMVI cells assessed as inhibition of cell growth; type: functional
[11] = test system: BaF3; assay: cells; type: functional, cell-based; settings: Mus musculus, BaF3, 72 h
Description: Antiproliferative activity against mouse BaF3 cells harboring FLT3 ITD mutant assessed as inhibition of cell growth incubated for 72 hrs

[12] = test system: MOLM-13; assay: Antiproliferative activity against human MOLM-13 cells harboring FLT3 ITD mutant assessed as inhibition of cell growth; type: functional, cell-based
[13] = Cytotoxicity against mouse BaF3 cells assessed as inhibition of cell growth incubated for 72 hrs; type: toxicity, cell-based
[14] = test system: SR; assay: Antiproliferative activity against human SR cells not addicted to FLT3 ITD mutant assessed as inhibition of cell growth; type: functional
[15] = test system: SW-620; assay: Antiproliferative activity against human SW-620 cells assessed as inhibition of cell growth; type: functional
[16] = target: Receptor-type tyrosine-protein kinase FLT3 (Homo sapiens, UniProt P36888, K663Q); assay: Binding affinity to FLT3 K663Q mutant (unknown origin)
[17] = target: Receptor-type tyrosine-protein kinase FLT3 (Homo sapiens, UniProt P36888, R834Q); assay: Binding affinity to FLT3 R834Q mutant (unknown origin)
[18] = target: Cyclin-dependent kinase 6 (Homo sapiens, UniProt Q00534); assay: Inhibition of human CDK6 pretreated for 20 mins followed by [gamma-33P]-ATP addition and measured after 120 mins in presence of 10 uM ATP by radiometric Hot-SpotSM Kinase assay
Sequence of Cyclin-dependent kinase 6 (Q00534 whole entry): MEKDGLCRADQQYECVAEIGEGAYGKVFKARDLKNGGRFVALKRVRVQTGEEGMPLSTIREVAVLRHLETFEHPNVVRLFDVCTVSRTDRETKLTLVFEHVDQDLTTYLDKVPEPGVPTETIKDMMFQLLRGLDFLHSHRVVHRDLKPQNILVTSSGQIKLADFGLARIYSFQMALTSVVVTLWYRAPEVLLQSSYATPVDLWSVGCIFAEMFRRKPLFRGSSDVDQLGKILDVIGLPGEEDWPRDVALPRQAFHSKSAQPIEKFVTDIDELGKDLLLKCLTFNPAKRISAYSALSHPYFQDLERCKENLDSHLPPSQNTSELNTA

[19] = target: Receptor-type tyrosine-protein kinase FLT3 (Homo sapiens) (UniProt P36888); assay: Inhibition of FLT3 (unknown origin); settings: concentration not given here
[20] = test system: MV4-11; assay: Antiproliferative activity against human MV4-11 cells harboring FLT3 ITD mutant assessed as inhibition of cell growth incubated for 72 hrs by CellTiter-Glo luminescent assay; type: functional, cell-based; settings: MV4-11, 72 h
[21] = AUC (0 to t) in Beagle dog at […], po; type: ADME, organism-based, Canis lupus familiaris; set-up: dose 1.5 mg/kg, route po; settings: in vivo
[22] = target: Receptor-type tyrosine-protein kinase FLT3 (Homo sapiens, UniProt P36888, F691L/ITD); assay: Binding affinity to FLT3 ITD/F691L mutant (unknown origin)
[23] = test system: U-937; assay: Antiproliferative activity against human U-937 cells expressing low level wild type FLT3 assessed as inhibition of cell growth; type: functional, cell-based
[24] = test system: NCI-H460; assay: Antiproliferative activity against human NCI-H460 cells assessed as inhibition of cell growth; type: functional
[25] = target: T1, Receptor-type tyrosine-protein kinase FLT3; assay: Binding affinity to FLT3 (unknown origin)
[26] = target: Receptor-type tyrosine-protein kinase FLT3 (Homo sapiens, UniProt P36888, D835V/ITD); assay: Binding affinity to FLT3 ITD/D835V mutant (unknown origin)
[27] = target: Receptor-type tyrosine-protein kinase FLT3 (Homo sapiens, UniProt P36888, ITD); assay: Binding affinity to FLT3 ITD mutant (unknown origin)
[28] = test system: BaF3; assay: cells; type: functional, cell-based; settings: Mus musculus, BaF3, 72 h; remark: listed apart in the source
Description: Antiproliferative activity against mouse BaF3 cells harboring FLT3 ITD/D835V mutant assessed as inhibition of cell growth incubated for 72 hrs

[29] = Oral bioavailability in rat at 10 mg/kg; type: ADME, organism-based; settings: in vivo
[30] = test system: KM12; assay: Antiproliferative activity against human KM12 cells assessed as inhibition of cell growth; type: functional
[31] = target: Receptor-type tyrosine-protein kinase FLT3 (Homo sapiens) (UniProt P36888); assay: Inhibition of FLT3 in human MV4-11 cells assessed as decrease in phosphorylated FLT3 level incubated for 24 hrs by immunoblot analysis; type: cell-based; settings: dose 20-600 nM
[32] = test system: BaF3; assay: cells; type: functional, cell-based; settings: Mus musculus, BaF3, 72 h; remark: listed apart in the source
Description: Antiproliferative activity against mouse BaF3 cells harboring FLT3 ITD/F691L mutant assessed as inhibition of cell growth incubated for 72 hrs

[33] = target: T1, Receptor-type tyrosine-protein kinase FLT3; assay: Binding affinity to autoinhibited FLT3 (unknown origin)

O=C(Nc1ccc(N2CCNCC2)cc1)c1n[nH]cc1Nc1cc(Oc2ccccc2)ncn1
inhibition [1]: 68.8%
IC50 [2]: 0.62 nM
Cmax [3]: 144 ng/mL
inhibition in vivo at 25 mg/kg [4]: 94.2%
IC50 [5]: 972 nM
Tmax [6]: 1.67 h
microsomal CLint [7]: 7.4 µL/min/mg
inhibition [8]: 80.9%
inhibition [9]: Active
GI50 [10]: < 1000 nM
IC50 [11]: 39 nM
IC50 [12]: 16.3 nM
IC50 at 72 h [13]: 2920 nM
GI50 [14]: 300 nM
GI50 [15]: < 1000 nM
Kd [16]: 121 nM
Kd [17]: 66.5 nM
IC50 [18]: 122 nM
inhibition [19]: 99.6%
IC50 [20]: 15 nM
AUC(0-t) [21]: 762 ng·h/mL
Kd [22]: 1.61 nM
IC50 [23]: 692 nM
GI50 [24]: < 1000 nM
Kd [25]: 22.1 nM
Kd [26]: 0.58 nM
Kd [27]: 18.2 nM
IC50 [28]: 9 nM
bioavailability [29]: 33.3%
GI50 [30]: < 1000 nM
inhibition [31]: Dose-Dependent Effect
IC50 [32]: 95 nM
Kd [33]: 121 nM
